In this assay the test system is caspase-8, caspase-9, AIF, cytochrome c, PARP in HCT116 cells. Put plainly: Western blot of proapoptotic proteins. It is filed as cell-based, human. The note with it: p53 null cells. The protocol: These are shown in Figure S5 supplementary information. […] This observation corresponds with the high selectivity of 5s towards the p53^−/− cell line. Moreover, no activation of caspase-8 or AIF was detected after incubation with the tested anilides. Similarly, the cytochrome c level was unaffected. Leakage of cytochrome c from the mitochondria is the first step of caspase-dependent apoptosis, which is often initiated by p53 activation. […] On the other hand, cleavage of PARP as well as a small but evident increase in the PARP level in response to the active compounds was observed. PolyADP-ribose polymerase is the nuclear factor that is responsible for detecting and repairing single strand breaks in DNA[79]. Its inhibition by the cleavage that is induced with caspase-3 is also a classic sign of apoptosis. However, the complex role of this protein is still vague especially in terms of any alternative activation and deactivation factors[80],[81]. Special attention is being paid to alternative ways of cell death for their potential usefulness in designing selectively targeted drugs[82]–[84].
The HCT116 cells were seeded in 3-cm Petri dishes (Nunc) at a density of 0.5·10^6 cells/well and incubated overnight. […] The protein concentration was determined using a Micro BCA™ Protein Assay Kit (Thermo-Fisher Scientific, Waltham, MA, USA c) according to the manufacturer’s instructions. […]
Background: Immunoblotting shows a protein as a band on a membrane.

SMILES strings stand for the structures.

`O=C(Nc1ccc(F)c(Cl)c1)c1ccc2ccccc2c1O` [5s]: the “cleavage of caspases-8 and −9” value was “some cleavage”.

Source of the values: article PMC6476888, “Design and synthesis of anticancer 1-hydroxynaphthalene-2-carboxanilides with a p53 independent mechanism of action” (Scientific Reports, 2019).
